Results: PubChem BioAssay (NCI)
“And” between values parts separate entries of the source, which are not always exact repeats. Identical values can stand only once.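 Method: 48-hour compound exposure of cells in 96-well plates, five concentrations, linear interpolation of endpoints. GI50 is the concentration that inhibits growth by half. TGI: total growth inhibition.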

Assays:
Test in all cases: inhibition of tumour cell growth, NCI panel, 48 h
CAKI-1 renal = system: CAKI-1 renal
HL-60(TB) leukemia = system: HL-60(TB) leukemia
HT29 colon = system: HT29 colon
UACC-62 melanoma = system: UACC-62 melanoma
OVCAR-5 ovarian = system: OVCAR-5 ovarian
OVCAR-4 ovarian = system: OVCAR-4 ovarian
BT-549 breast = system: BT-549 breast
SK-MEL-5 melanoma = system: SK-MEL-5 melanoma
EKVX NSCLC = system: EKVX NSCLC
M14 melanoma = system: M14 melanoma

Structure (SMILES) | GI50 (CAKI-1 renal) | TGI (CAKI-1 renal) | GI50 (HL-60(TB) leukemia) | TGI (HL-60(TB) leukemia) | GI50 (HT29 colon) | TGI (HT29 colon) | GI50 (UACC-62 melanoma) | TGI (UACC-62 melanoma) | GI50 (OVCAR-5 ovarian) | TGI (OVCAR-5 ovarian) | GI50 (OVCAR-4 ovarian) | TGI (OVCAR-4 ovarian) | GI50 (BT-549 breast) | TGI (BT-549 breast) | GI50 (SK-MEL-5 melanoma) | GI50 (EKVX NSCLC) | TGI (EKVX NSCLC) | GI50 (M14 melanoma) | TGI (M14 melanoma) | TGI (SK-MEL-5 melanoma)
C/C(=C\c1ccn(-c2ccc(N)cc2F)n1)[C@@H]1C[C@@H]2O[C@]2(C)CCC[C@H](C)[C@H](O)[C@@H](C)C(=O)C(C)(C)[C@@H](O)CC(=O)O1 | 0.123 µM | > 50 µM | 0.0174 µM | 0.859 µM | 0.0173 µM | > 29 µM | 0.0914 µM | > 50 µM | 0.116 µM | > 50 µM | 0.4 µM | > 50 µM | 0.0943 µM | > 50 µM | 0.0199 µM | 0.36 µM | > 50 µM |  |  | 
Oc1c(CN2CCN(c3ccccc3F)CC2)cc(Br)c2cccnc12 | 0.376 µM | 9.26 µM | 0.392 µM | 2.34 µM | 11.3 µM | 40.5 µM | 0.631 µM | 4.09 µM | 5.36 µM | 49 µM |  |  | 2.02 µM | > 100 µM | 0.616 µM |  |  | 0.924 µM | 16.5 µM | > 21.4 µM
O=c1ccnc(SCc2ccc(Cl)cc2)[nH]1 |  | > 100 µM |  |  |  | > 100 µM |  | > 100 µM |  | > 100 µM |  | > 100 µM |  | > 100 µM |  |  | > 100 µM |  | > 100 µM | > 100 µM
COc1ccc2nc(-c3cc4c([nH]c5ccccc54)c(-c4ccc(F)c(F)c4)n3)[nH]c2c1 | 2.41 µM | 8.97 µM | 2.78 µM | 7.12 µM | 3.74 µM | 13 µM | 2.76 µM | 10.2 µM | 17.8 µM | 58.6 µM | 6.3 µM | 24 µM | 6.3 µM | 22.5 µM | 4.91 µM |  |  | 4.02 µM | 16.9 µM | 21.9 µM
Cc1cc2nc(C(Cl)Cl)nc(-c3ccccc3)n2n1 | 2.7 µM | 15.4 µM | 2.38 µM | 6.35 µM | 2.77 µM | 13.9 µM | 8.55 µM | 56 µM | 3.3 µM | 17.1 µM | 2.19 µM | 7.51 µM | 17.4 µM | > 100 µM | 39.3 µM | 3.72 µM | 20.3 µM |  |  | > 100 µM
Cc1ccc(NC(=O)c2cc3ccccc3cc2O)c(C)c1.Cc1ccc(NC(=O)c2cc3ccccc3cc2[O-])c(C)c1.[Ni+2] | 3.08 µM | 13.1 µM |  |  | 3.14 µM | 10.9 µM | 4.91 µM | 21.2 µM | 4.25 µM | 17.9 µM | 3.88 µM | 25.4 µM | 2.44 µM | 7.55 µM | 2.57 µM | 2.57 µM | 8.99 µM | 4.31 µM | 13.9 µM | 10.2 µM
N#Cc1nn(-c2cc(=O)[nH]c3ccc(Br)cc23)c(N)c1C#N | > 100 µM | > 100 µM | > 100 µM | > 100 µM | > 100 µM | > 100 µM | > 100 µM | > 100 µM | > 100 µM | > 100 µM |  |  | > 100 µM | > 100 µM | > 100 µM | 4.6 µM | > 100 µM | > 100 µM | > 100 µM | > 100 µM
Cc1ccc(C2=NN(c3ccc(S(N)(=O)=O)cc3)C(c3cn(-c4ccccc4)nc3-c3ccccc3)C2)cc1 (centres undefined) | 6.17 µM | > 100 µM | 44 µM | > 100 µM | 4.8 µM | > 100 µM | 32.4 µM | > 100 µM | 70.4 µM | > 100 µM |  |  | 3.85 µM | 61.6 µM | 16.6 µM |  |  | 8.54 µM | > 100 µM | > 100 µM
O=[N+]([O-])c1cc2c(c([N+](=O)[O-])c1)Nc1ccccc1O2 | 5.36 µM | 26.9 µM |  |  | 6.41 µM | 66.8 µM | 5.11 µM | > 100 µM | 14.9 µM | 62.2 µM | 5.99 µM | 68.3 µM | 7.58 µM | 60.8 µM | 3.81 µM | 4.4 µM | 51.7 µM | 11.5 µM | > 100 µM | 21.6 µM
CC#CC(=O)N1CC[C@@H](n2c(=O)n(-c3ccc(Oc4ccccc4)cc3)c3c(N)ncnc32)C1 | 13.8 µM | > 100 µM | 23.5 µM | 77.4 µM | 34.7 µM | > 100 µM | 14.8 µM | 42.8 µM | 46.6 µM | > 100 µM | 20.4 µM | > 100 µM | 14.5 µM | 55 µM | 16.9 µM | 19.7 µM | > 100 µM |  |  | 38.8 µM
Clc1ccc2c(NCCNc3nc(N4CCCC4)nc4ccccc34)ccnc2c1 |  |  | 0.704 µM | 1.54 µM | 0.0943 µM | 1.39 µM | 1.8 µM | 3.5 µM | 2.15 µM | 6.38 µM | 1.28 µM | 3.58 µM | 2.01 µM | 4.98 µM | 1.64 µM | 2.08 µM | 7.65 µM | 0.935 µM | 2.76 µM | 3.02 µM
Cc1c(CC/C(=N\Nc2ccc([N+](=O)[O-])cc2[N+](=O)[O-])c2ccccc2)c2ccccc2n1C |  | > 100 µM |  | > 81.2 µM |  | > 100 µM |  | > 100 µM |  | > 100 µM |  | > 100 µM |  |  |  |  | > 100 µM |  | > 100 µM | > 100 µM
COC(C)(C)[C@H](O)C(O)CC(C)[C@@H]1CCC23CC12CCC1[C@@]2(C)CCC(OC(C)=O)C(C)(C)C2CC(OC2OC(COC(C)=O)C(O)C(O)C2O)[C@]13C (some centres undefined) | 8.27 µM | 10.2 µM and 20.2 µM | 2.55 µM | 3.09 µM and 6.18 µM | 1.83 µM | 2.49 µM and 3.67 µM | 6.28 µM | 9.47 µM and 19.2 µM | 3.92 µM | 8.54 µM and 14.3 µM | 7.01 µM | 13.1 µM and 21.3 µM |  |  | 10.2 µM | 10.9 µM | 15.4 µM and 24.7 µM | 3.58 µM | 9.78 µM and 14.2 µM | 12.8 µM and 23.3 µM
O=S(=O)(Nc1ccccn1)c1ccc(N=Nc2ccc(O)c3ncccc23)cc1 | 0.441 µM | 4.56 µM | 0.77 µM | 2.61 µM | 4.53 µM | 19.3 µM | 0.582 µM | 3.03 µM | 3.53 µM | 18.7 µM | 2.33 µM | 12.2 µM | 1.25 µM | 7.04 µM | 0.683 µM |  |  | 1.21 µM | 5.55 µM | 1.63 µM
